SMILES strings stand for the structures.

Sequence of human truncated cGAS enzyme (147-522 human cGAS) (Q8N884 147-522): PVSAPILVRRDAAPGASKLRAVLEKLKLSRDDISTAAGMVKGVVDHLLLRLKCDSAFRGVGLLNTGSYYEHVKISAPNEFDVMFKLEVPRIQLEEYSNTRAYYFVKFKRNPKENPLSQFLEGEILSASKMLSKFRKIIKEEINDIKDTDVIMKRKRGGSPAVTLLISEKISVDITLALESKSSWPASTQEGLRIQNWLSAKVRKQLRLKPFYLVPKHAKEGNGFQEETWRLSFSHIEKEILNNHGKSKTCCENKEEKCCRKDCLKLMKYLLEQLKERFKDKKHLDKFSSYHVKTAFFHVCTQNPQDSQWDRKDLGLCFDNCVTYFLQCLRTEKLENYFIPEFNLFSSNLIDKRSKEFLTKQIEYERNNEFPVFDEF

This assay has as its target human truncated cGAS enzyme (147-522 human cGAS) (Homo sapiens (Human), UniProt Q8N884). The assay can be described thus: Quantification of cGAS protein inhibition (cGAMP formation measured by LC-MS/MS). In kind it is biochemical. As to conditions: reported for the potential mixture in solution of co-existing tautomers and/or racemates. Put shortly:
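Human cGAS 147-522 (30 nM) in Tris pH 7.5, NaCl, MgCl2, ZnCl2, Tween 20, started with 5 μM ISD 45 bp dsDNA, 0.5 mM GTP and 0.5 mM ATP. Incubated 1 h at room temperature, then quenched with acetonitrile/TFA. cGAMP quantified by LC-MS/MS against a labelled cGAMP internal standard; IC50 from ratio versus compound concentration.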
For the compound `COCC(c1nnc(-c2c(-n3ccnc3)c3cc(OC)c(Cl)c(F)c3n2C)[nH]1)n1ccnc1` (centres unmarked) [Example 100, 2-(5-(1-(1H-imidazol-1-yl)-2-methoxyethyl)-4H-1,2,4-triazol-3-yl)-6-chloro-7-fluoro-3-(1H-imidazol-1-yl)-5-methoxy-1-methyl-1H-indole], the 50% inhibitory concentration (IC50) stood at 65 nM.
`CCOc1cc2c(-n3ccnc3)c(-c3nnc(C(C)=O)[nH]3)n(C)c2c(F)c1Cl` [Example 101, 1-(5-(6-chloro-5-ethoxy-7-fluoro-3-(1H-imidazol-1-yl)-1-methyl-1H-indol-2-yl)-4H-1,2,4-triazol-3-yl)ethan-1-one]: the IC50 came to 721 nM.
With `COc1cc2c(-n3ccnc3)c(-c3nnc(C(C)=O)[nH]3)n(C)c2c(F)c1Cl` [Example 102, 1-(5-(6-chloro-7-fluoro-3-(1H-imidazol-1-yl)-5-methoxy-1-methyl-1H-indol-2-yl)-4H-1,2,4-triazol-3-yl)ethan-1-one], the concentration for half-maximal inhibition (IC50) was determined as 108 nM.
The result for `COc1cc2c(-n3ccnc3)c(-c3nnc(C(=O)N(C)C)[nH]3)n(C)c2c(C#N)c1Cl` [Example 103, 5-(6-chloro-7-cyano-3-(1H-imidazol-1-yl)-5-methoxy-1-methyl-1H-indol-2-yl)-N,N-dimethyl-4H-1,2,4-triazole-3-carboxamide] reads 171 nM; that for `COc1cc2c(-n3ccnc3)c(-c3nnc(C(=O)N(C)C)[nH]3)n(C)c2c(F)c1F` [Example 104, 5-(6,7-difluoro-3-(1H-imidazol-1-yl)-5-methoxy-1-methyl-1H-indol-2-yl)-N,N-dimethyl-4H-1,2,4-triazole-3-carboxamide], 318 nM; that for `FC(F)(F)c1nnc(-c2[nH]c3cc(Cl)c(Cl)cc3c2-n2ccnc2)[nH]1` [Example 105, 5,6-dichloro-3-(1H-imidazol-1-yl)-2-(5-(trifluoromethyl)-4H-1,2,4-triazol-3-yl)-1H-indole], 564 nM.
The result for `FC(F)(F)c1nnc(-c2[nH]c3c(Cl)c(Cl)ccc3c2-n2ccnc2)[nH]1` [Example 106, 6,7-dichloro-3-(1H-imidazol-1-yl)-2-(5-(trifluoromethyl)-4H-1,2,4-triazol-3-yl)-1H-indole] reads 95 nM; that for `COc1cc2c(-n3ccnc3)c(-c3nnc(C(F)(F)F)[nH]3)[nH]c2cc1Cl` [Example 107, 6-chloro-3-(1H-imidazol-1-yl)-5-methoxy-2-(5-(trifluoromethyl)-4H-1,2,4-triazol-3-yl)-1H-indole], 79 nM; that for `Cn1c(-c2nnc(C(F)(F)F)[nH]2)c(-n2ccnc2)c2cc(Cl)c(Cl)cc21` [Example 108, 5,6-dichloro-3-(1H-imidazol-1-yl)-1-methyl-2-(5-(trifluoromethyl)-4H-1,2,4-triazol-3-yl)-1H-indole], 282 nM.
The result for `N#Cc1c(Cl)ccc2c(-n3ccnc3)c(-c3nnc(C(F)(F)F)[nH]3)[nH]c12` [Example 110, 6-chloro-3-(1H-imidazol-1-yl)-2-(5-(trifluoromethyl)-4H-1,2,4-triazol-3-yl)-1H-indole-7-carbonitrile] reads 226 nM.
As to `Cn1c(-c2nnc(C(F)(F)F)[nH]2)c(-n2ccnc2)c2ccc(Cl)c(C#N)c21` [Example 111, 6-chloro-3-(1H-imidazol-1-yl)-1-methyl-2-(5-(trifluoromethyl)-4H-1,2,4-triazol-3-yl)-1H-indole-7-carbonitrile], the IC50 was determined as 201 nM.
For `FC(F)Oc1cc2c(-n3ccnc3)c(-c3nnc(C(F)(F)F)[nH]3)[nH]c2cc1Cl` [Example 112, 6-chloro-5-(difluoromethoxy)-3-(1H-imidazol-1-yl)-2-(5-(trifluoromethyl)-4H-1,2,4-triazol-3-yl)-1H-indole] the value was 659 nM.
The result for `COc1cc2c(-n3ccnc3)c(-c3nnc(C(F)(F)F)[nH]3)n(C)c2cc1Cl` [Example 114, 6-chloro-3-(1H-imidazol-1-yl)-5-methoxy-1-methyl-2-(5-(trifluoromethyl)-4H-1,2,4-triazol-3-yl)-1H-indole] reads 140 nM; that for `COc1cc2c(-n3ccnc3)c(-c3nnc(C(=O)N(C)C)[nH]3)n(C)c2cc1Cl` [Example 116, 5-(6-chloro-3-(1H-imidazol-1-yl)-5-methoxy-1-methyl-1H-indol-2-yl)-N,N-dimethyl-4H-1,2,4-triazole-3-carboxamide], 103 nM.
In the case of `Cn1c(-c2nnc(CCO)[nH]2)c(-n2ccnc2)c2cc(O)c(Cl)c(C#N)c21` [Example 117, 6-chloro-5-hydroxy-2-(5-(2-hydroxyethyl)-4H-1,2,4-triazol-3-yl)-3-(1H-imidazol-1-yl)-1-methyl-1H-indole-7-carbonitrile], the IC50 worked out at 169 nM.
In the case of `COc1cc2c(-n3ccnc3)c(-c3nnc(CCO)[nH]3)n(C)c2c(C#N)c1Cl` [Example 118, 6-chloro-2-(5-(2-hydroxyethyl)-4H-1,2,4-triazol-3-yl)-3-(1H-imidazol-1-yl)-5-methoxy-1-methyl-1H-indole-7-carbonitrile], the concentration for half-maximal inhibition (IC50) was determined as 291 nM.
Consider `COc1cc2c(-n3ccnc3)c(-c3nnc(CCO)[nH]3)n(C)c2cc1Cl` [Example 119, 2-(5-(6-chloro-3-(1H-imidazol-1-yl)-5-methoxy-1-methyl-1H-indol-2-yl)-4H-1,2,4-triazol-3-yl)ethan-1-ol], for which the concentration for half-maximal inhibition (IC50) was determined as 990 nM.
For `COc1cc2c(-n3ccnc3)c(-c3nnc(C(C)N4CCOCC4)[nH]3)n(C)c2c(F)c1Cl` (centres unmarked) [Example 121, 4-(1-(5-(6-chloro-7-fluoro-3-(1H-imidazol-1-yl)-5-methoxy-1-methyl-1H-indol-2-yl)-4H-1,2,4-triazol-3-yl)ethyl)morpholine] the value was 80 nM.
In the case of `COc1cc2c(-n3ccnc3)c(-c3nnc(C(C)N(C)C)[nH]3)n(C)c2c(F)c1Cl` (centres unmarked) [Example 122, 1-(5-(6-chloro-7-fluoro-3-(1H-imidazol-1-yl)-5-methoxy-1-methyl-1H-indol-2-yl)-4H-1,2,4-triazol-3-yl)-N,N-dimethylethan-1-amine], the IC50 was found to be 177 nM.
On to `CNC(C)c1nnc(-c2c(-n3ccnc3)c3cc(OC)c(Cl)c(F)c3n2C)[nH]1` (centres unmarked) [Example 123, 1-(5-(6-chloro-7-fluoro-3-(1H-imidazol-1-yl)-5-methoxy-1-methyl-1H-indol-2-yl)-4H-1,2,4-triazol-3-yl)-N-methylethan-1-amine], for which the IC50 worked out at 121 nM.
Consider `COC[C@@H](c1nnc(-c2c(-n3ccnc3)c3cc(OC)c(Cl)c(F)c3n2C)[nH]1)N(C)C` [Example 124a, (R)-1-(5-(6-chloro-7-fluoro-3-(1H-imidazol-1-yl)-5-methoxy-1-methyl-1H-indol-2-yl)-4H-1,2,4-triazol-3-yl)-2-methoxy-N,N-dimethylethan-1-amine], for which the concentration for half-maximal inhibition (IC50) was 120 nM.
For the compound `COC[C@H](c1nnc(-c2c(-n3ccnc3)c3cc(OC)c(Cl)c(F)c3n2C)[nH]1)N(C)C` [Example 124b, (S)-1-(5-(6-chloro-7-fluoro-3-(1H-imidazol-1-yl)-5-methoxy-1-methyl-1H-indol-2-yl)-4H-1,2,4-triazol-3-yl)-2-methoxy-N,N-dimethylethan-1-amine], the IC50 was 140 nM.
For `CN[C@@H](COC)c1nnc(-c2c(-n3ccnc3)c3cc(OC)c(Cl)c(F)c3n2C)[nH]1` [Example 125a, (R)-1-(5-(6-chloro-7-fluoro-3-(1H-imidazol-1-yl)-5-methoxy-1-methyl-1H-indol-2-yl)-4H-1,2,4-triazol-3-yl)-2-methoxy-N-methylethan-1-amine] the value was 180 nM.
The result for `CN[C@H](COC)c1nnc(-c2c(-n3ccnc3)c3cc(OC)c(Cl)c(F)c3n2C)[nH]1` [Example 125b, (S)-1-(5-(6-chloro-7-fluoro-3-(1H-imidazol-1-yl)-5-methoxy-1-methyl-1H-indol-2-yl)-4H-1,2,4-triazol-3-yl)-2-methoxy-N-methylethan-1-amine] reads 180 nM; that for `COCC(c1nnc(-c2c(-n3ccnc3)c3cc(OC)c(Cl)c(F)c3n2C)[nH]1)N1CCOCC1` (centres unmarked) [Example 126, 4-(1-(5-(6-chloro-7-fluoro-3-(1H-imidazol-1-yl)-5-methoxy-1-methyl-1H-indol-2-yl)-4H-1,2,4-triazol-3-yl)-2-methoxyethyl)morpholine], 411 nM.
For `COCC(c1nnc(-c2c(-n3ccnc3)c3cc(OC)c(Cl)c(F)c3n2C)[nH]1)N1CCC1` (centres unmarked) [Example 127, 2-(5-(1-(azetidin-1-yl)-2-methoxyethyl)-4H-1,2,4-triazol-3-yl)-6-chloro-7-fluoro-3-(1H-imidazol-1-yl)-5-methoxy-1-methyl-1H-indole] the value was 487 nM.
Consider `COCCN(C)C(C)c1nnc(-c2c(-n3ccnc3)c3cc(OC)c(Cl)c(F)c3n2C)[nH]1` (centres unmarked) [Example 128, 1-(5-(6-chloro-7-fluoro-3-(1H-imidazol-1-yl)-5-methoxy-1-methyl-1H-indol-2-yl)-4H-1,2,4-triazol-3-yl)-N-(2-methoxyethyl)-N-methylethan-1-amine], for which the 50% inhibitory concentration (IC50) came out at 454 nM.
For `COCCNC(C)c1nnc(-c2c(-n3ccnc3)c3cc(OC)c(Cl)c(F)c3n2C)[nH]1` (centres unmarked) [Example 129, 1-(5-(6-chloro-7-fluoro-3-(1H-imidazol-1-yl)-5-methoxy-1-methyl-1H-indol-2-yl)-4H-1,2,4-triazol-3-yl)-N-(2-methoxyethyl)ethan-1-amine] the value was 757 nM; for `COc1cc2c(-n3ccnc3)c(-c3nnc(C(C)N4CC5(COC5)C4)[nH]3)n(C)c2c(F)c1Cl` (centres unmarked) [Example 130, 6-(1-(5-(6-chloro-7-fluoro-3-(1H-imidazol-1-yl)-5-methoxy-1-methyl-1H-indol-2-yl)-4H-1,2,4-triazol-3-yl)ethyl)-2-oxa-6-azaspiro[3.3]heptane], 268 nM.

(Values after US12404261B2, “Compounds and compositions for treating conditions associated with cGAS” (Novartis AG, priority 2020, dated 2025).)
